Laboratory results taken from ChEMBL document CHEMBL1153036, “Structure-based de novo design and biochemical evaluation of novel Cdc25 phosphatase inhibitors” (Bioorg Med Chem Lett, 2009).

Tests used:
[1] = target: T1, M-phase inducer phosphatase 1 (Homo sapiens, UniProt P30304); experiment: Inhibition of N-terminal 6xHis-tagged human Cdc25A (336-523) catalytic domain expressed in Escherichia coli after 20 mins by fluorescent plate reader assay
T1 sequence (P30304 whole entry): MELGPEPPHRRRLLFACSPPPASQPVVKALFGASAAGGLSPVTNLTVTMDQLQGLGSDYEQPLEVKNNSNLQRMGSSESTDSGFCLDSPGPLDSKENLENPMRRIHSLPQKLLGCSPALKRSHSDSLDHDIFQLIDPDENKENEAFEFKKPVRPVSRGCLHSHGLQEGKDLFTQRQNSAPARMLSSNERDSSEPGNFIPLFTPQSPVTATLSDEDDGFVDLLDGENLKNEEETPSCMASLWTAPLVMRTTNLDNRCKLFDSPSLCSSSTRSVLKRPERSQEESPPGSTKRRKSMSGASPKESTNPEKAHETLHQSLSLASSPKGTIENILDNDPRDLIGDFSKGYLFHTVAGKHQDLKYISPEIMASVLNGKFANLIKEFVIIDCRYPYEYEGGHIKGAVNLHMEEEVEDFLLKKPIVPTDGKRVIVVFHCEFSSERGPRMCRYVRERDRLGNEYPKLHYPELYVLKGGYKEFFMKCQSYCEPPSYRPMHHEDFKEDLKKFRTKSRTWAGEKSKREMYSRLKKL

[2] = target: T2, M-phase inducer phosphatase 2 (Homo sapiens, UniProt P30305); experiment: Inhibition of N-terminal 6xHis-tagged (378-566) catalytic domain of Cdc25B expressed in Escherichia coli after 20 mins by fluorescent plate reader assay
T2 sequence (P30305 whole entry): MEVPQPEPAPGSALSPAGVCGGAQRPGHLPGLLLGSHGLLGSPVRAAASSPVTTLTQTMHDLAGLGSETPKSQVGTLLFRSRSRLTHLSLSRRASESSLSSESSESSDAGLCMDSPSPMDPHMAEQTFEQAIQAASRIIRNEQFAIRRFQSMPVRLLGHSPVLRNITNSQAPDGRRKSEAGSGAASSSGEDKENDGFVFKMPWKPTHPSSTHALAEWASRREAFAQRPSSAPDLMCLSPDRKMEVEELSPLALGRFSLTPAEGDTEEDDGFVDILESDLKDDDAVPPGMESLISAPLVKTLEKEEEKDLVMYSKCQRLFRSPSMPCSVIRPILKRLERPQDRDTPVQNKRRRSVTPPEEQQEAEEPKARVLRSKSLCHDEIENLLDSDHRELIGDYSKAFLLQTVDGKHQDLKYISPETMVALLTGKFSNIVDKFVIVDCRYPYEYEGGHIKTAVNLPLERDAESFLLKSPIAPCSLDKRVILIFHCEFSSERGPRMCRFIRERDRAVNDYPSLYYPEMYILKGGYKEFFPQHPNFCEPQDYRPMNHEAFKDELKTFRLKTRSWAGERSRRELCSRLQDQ

Row | SMILES | IC50 [1] [µM] | IC50 [2] [µM]
1 | Cc1ccc(/N=C2N=C(O)/C(=C/C=C/c3ccco3)S\2)cc1C | 7.1 | 1.8
2 | COc1ccc(-c2nnc(SCC(=O)c3ccc(O)c(O)c3)n2-c2ccccc2)cc1 | 6 | 1.7
3 | CC(=C/c1ccccc1)/C=C1\SC(Nc2ccccc2Cl)=NC1=O | 10.3 | 3.9
4 | O=C1N=C(Nc2ccccc2Cl)S/C1=C\C=C\c1ccco1 | 10.1 | 2.1
5 | COc1ccc(-n2c(SCC(=O)c3ccc(O)c(O)c3)nnc2-c2ccc(C)cc2)cc1 | 9.2 | 4.7
6 | O=C1N=C(Nc2cccc(O)c2)S/C1=C\c1cccs1 | 7.8 | 2.8
7 | CC(=C/c1ccccc1)/C=C1\SC(Nc2cc(Cl)cc(Cl)c2)=NC1=O | 5.1 | 1.2
8 | CCn1c(SCC(=O)c2ccc(Cl)cc2)nnc1-c1cccnc1 | 17.2 | 6
9 | CC(=C/c1ccccc1)/C=C1\SC(Nc2cccc(Cl)c2)=NC1=O | 12.8 | 3.3
10 | C=Cn1c(SCC(=O)c2ccc(Cl)cc2)nnc1-c1ccco1 | 14.5 | 5.2
11 | Cn1cccc1/C=C1\SC(Nc2ccc(F)cc2)=NC1=O | 14.3 | 3.7
12 | O=C1N=C(Nc2ccc(Cl)cc2Cl)S/C1=C\C=C\c1ccco1 | 6.7 | 4.5
13 | Cn1c(SCC(=O)c2ccc(-c3ccccc3)cc2)nnc1-c1ccncc1 | 13.1 | 4.2
14 | Cc1ccc(-c2nnc(SCC(=O)c3ccc(O)c(O)c3)n2-c2ccccc2)cc1 | 7.1 | 2.5
15 | O=C1N=C(Nc2cc(Cl)cc(Cl)c2)S/C1=C\c1c[nH]c2ccccc12 | 12.7 | 2.3
16 | O=C1N=C(Nc2cccc(Cl)c2)S/C1=C\C=C\c1ccco1 | 9.1 | 3.2
17 | Cn1c(SCC(=O)c2ccc(-c3ccccc3)cc2)nnc1-c1ccco1 | 13 | 2
18 | O=C1N=C(Nc2cc(Cl)cc(Cl)c2)S/C1=C\C=C\c1ccco1 | 4.1 | 2.3
19 | Oc1nc(Nc2ccc(Cl)cc2Cl)sc1/C=C1\C=Nc2ccccc21 | 12.6 | 2.6
20 | O=C(CSc1nnc(-c2ccc(Cl)cc2)n1-c1ccccc1)c1ccc(O)c(O)c1 | 11.5 | 1.6
21 | Cn1cccc1/C=C1\SC(Nc2ccc(Cl)cc2)=NC1=O | 15.4 | 3.1
22 | Cc1ccc(-c2nnc(SCC(=O)c3ccc(O)c(O)c3)n2Cc2ccco2)cc1 | 4.7 | 2.3
23 | CC(=C/c1ccccc1)/C=C1\SC(Nc2ccc(Br)cc2)=NC1=O | 17.3 | 5.1
24 | O=C1N=C(Nc2cccc(Cl)c2Cl)S/C1=C\C=C\c1ccco1 | 6.2 | 2.1
25 | Cn1c(SCC(=O)c2ccc([N+](=O)[O-])cc2)nnc1-c1cccc(NC(=O)c2ccccc2F)c1 | 19 | 5.4
26 | O=C1N=C(Nc2ccc(Cl)cc2)S/C1=C\c1cccs1 | 11.1 | 4.4
27 | O=C1N=C(Nc2ccc(F)cc2)S/C1=C\c1cccs1 | 30.7 | 8.9
28 | O=C1N=C(Nc2cccc(Br)c2)S/C1=C\C=C\c1ccco1 | 7.7 | 2.7
29 | Cn1c(SCC(=O)c2ccc([N+](=O)[O-])cc2)nnc1-c1cccc(Cl)c1 | 11.1 | 4.4
30 | CC(=C/c1ccccc1)/C=C1\SC(Nc2ccc(C)c(C)c2)=NC1=O | 8.1 | 2.3
